Source: patent publication US9701631B2, “TIP60 inhibitors” (The Trustees Of The University Of Pennsylvania, priority 2010, dated 2017)

Assays:
[1] = tested on: Treg suppression of T cell proliferation; assay: Treg suppression assay in vitro (T cell proliferation, 3 days, CFSE dye, flow cytometry); type: cell-based; conditions: for enhancement of suppression of Treg in vitro: 500x dilution of 10 mM solution (20 micromolar), FIG. 10; for percentage of proliferated cells: Treg:Teff=1:1
Text: FIGS. 8A-D are flow cytometry dataplots showing the enhancement of TIP60 inhibitor B7 suppression of Treg in vitro. Individual peaks reflect number of cells divisions under the standard test conditions (3 days), where the cell populations are dyed with CFSE (carboxyfluorescen diacetate, succimidyl ester). FIG. 8A are the data for DMSO without B7; FIG. 8B are the data for B7-1000×; FIG. 8C are the data for B7-4000×; and FIG. 8D are the data for B7-8000. In each case, the 1000×/4000×/8000× refers to the dilution factor of the B7, from an original 10 mM solution of B7; e.g, 1000× represents a solution diluted by a factor of 1000, so as to result in a 10 micromolar solution. The numbers in the upper left corner of the plot (e.g., 88, 81, 74, 65, and 37 of FIG. 8A) refer to the measured percentage of proliferated cells.
FIGS. 10A-E are flow cytometry dataplots showing the enhancement of TIP60 inhibitors B7 suppression of Treg in vitro. FIG. 10A are the data for DMSO without any B7-type inhibitor; FIG. 10B are the data for B7-500×; FIG. 10C are the data for B7A-500×; FIG. 10D are the data for B7B-500; and FIG. 10E are the data for B7C-500×. In each case, the 500× refers to the dilution factor of the B7/B7A/B7B/B7C, from an original 10 mM solution of the compound; e.g, 500× represents a solution diluted by a factor of 500, so as to result in a 20 micromolar solution.
Several exemplary compounds of the present invention were screened at 10 μg/ml in vitro, at varying Treg:T cell ratios, using standard cell proliferation techniques (3 days, using CSFE dyes). Such techniques are well understood by those skilled in the art. For example, see Akimova T, Ge G, Golovina T, Mikheeva T, Wang L, Riley J L, Hancock W W., “Histone/protein deacetylase inhibitors increase suppressive functions of human FOXP3+ Tregs,” Clin Immunol. 2010 September; 136(3):348-63; Tao R, Hancock W W., Resistance of FOXP3+ regulatory T cells to Nur77-induced apoptosis promotes allograft survival,” PLoS One. 2008 May 28; 3(5):e2321; Tao R, Wang L, Murphy K M, Fraser C C, Hancock W W., “Regulatory T cell expression of herpesvirus entry mediator suppresses the function of B and T lymphocyte attenuator-positive effector T cells.,” J. Immunol. 2008 May 15; 180(10):6649-55; and Tao R, de Zoeten E F, Ozkaynak E, Chen C, Wang L, Porrett P M, Li B, Turka L A, Olson E N, Greene M I, Wells A D, Hancock W W., “Deacetylase inhibition promotes the generation and function of regulatory T cells,” Nat. Med. 2007 November; 13(11):1299-307 for the protocols used herein. Each of these references is incorporated by reference herein, at least for this purpose.
T cell proliferation was unimpaired in the absence of Treg cells (see left panels in FIG. 8A-D), but was increasingly impaired at increasing Treg concentration (for example, in FIG. 8A, increasing Treg:Tcell ratio from 0:1 to 1:1 reduced proliferation from 88% to 37% under otherwise identical conditions). […] Efficacy was also seen at 1 μg/ml for some compounds.

[2] = tested on: FOXP3; assay: FOXP3 bound on chromatin in SZ-4 T cells (Western blot); type: cell-based; conditions: FIG. 9
[3] = tested on: dextran sodium sulfate (DSS) model of colitis; assay: DSS model of established colitis in mice, remedial treatment; type: in vivo
Method: FIGS. 12A-C are the result of experiments described in Example 5. […] FIG. 12C provide graphical data for weight loss, bleeding score, and stool consistency (i.e., higher score reflects higher levels of diarrhea), wherein the mice were first subjected to DSS irritation, then subset populations were remedially treated after 8 days with the compound having Structure B7.
In a first test, the effects of exposure to dextran sodium sulfate (DSS) were evaluated, which results in a partially CD4-dependent inflammatory model of colitis, in wildtype (WT) versus TIP60dn C57BL/6 mice (8 mice/group).
Data were also generated using the compound of Structure B7 in the DSS model, in an experiment designed to test the ability of TIP60 inhibitor therapy to reverse established colitis by waiting until mice had ˜15% weight loss. In marked contrast to use of carrier DMSO alone, TIP60 inhibitor therapy (2 mg/kg/d, i.p.) reversed weight loss (p<0.01), blood in the stool (p<0.01) and diarrhea (p<0.005) (see FIG. 12C) and maintained colon length (p<0.01).

[4] = target: T1, TIP60 (Homo sapiens, UniProt Q92993); assay: TIP60 activity by acetylation of TIP60 or its substrate FOXP3 in transfected 293T cells (Ac-K immunoprecipitation, Western blot); type: cell-based; conditions: 4 hours
T1 construct: expressed in transfected cells; host or cells: 293T cells
Method: FIG. 11 illustrate the effect of B7G on TIP60. TIP60 activity was assessed by examining acetylation of TIP60 or its substrate FOXP3. Both TIP60 and FOXP3 were overexpressed in 293T cells. Acetylated proteins were first immunoprecipitated with the acetyl-lysine specific antibody Ac-K and then blotted with HRP conjugated antibodies to expression tags (HA for FOXP3 or FLAG for TIP60).
TIP60 is known to have acetyl transferase activity to acetylate itself (auto-acetylation) or substrates including FOXP3. To examine activity of B7G on TIP60, 293T cells were transfected with Flag-tagged TIP60 and HA-tagged FOXP3. 24 hours after transfection, cells were treated with various concentrations of B7G for 4 hours before cell lysates were collected. Acetylated proteins were precipitated by anti-acetyl lysine antibody Ac-K. FOXP3 and TIP60 in the lysate or precipitated by Ac-K antibody were identified by anti-HA-HRP and anti-FLAG-HRP respectively.

[5] = 2 mg/kg/d i.p., vs carrier DMSO, p<0.01

T1 sequence (Q92993 whole entry, species assumed): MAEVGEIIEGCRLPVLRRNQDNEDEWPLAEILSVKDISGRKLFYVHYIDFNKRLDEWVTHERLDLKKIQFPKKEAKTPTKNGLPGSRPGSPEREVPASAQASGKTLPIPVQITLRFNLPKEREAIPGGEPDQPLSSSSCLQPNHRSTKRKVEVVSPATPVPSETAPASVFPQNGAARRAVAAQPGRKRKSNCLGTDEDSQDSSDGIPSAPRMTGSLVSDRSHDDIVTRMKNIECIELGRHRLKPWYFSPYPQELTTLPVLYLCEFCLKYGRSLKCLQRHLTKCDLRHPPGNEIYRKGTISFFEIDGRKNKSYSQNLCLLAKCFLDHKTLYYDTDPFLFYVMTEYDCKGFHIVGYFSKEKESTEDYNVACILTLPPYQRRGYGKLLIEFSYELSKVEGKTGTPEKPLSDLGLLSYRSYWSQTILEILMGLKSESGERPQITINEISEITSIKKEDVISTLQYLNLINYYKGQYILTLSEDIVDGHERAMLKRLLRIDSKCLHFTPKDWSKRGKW

In the case of `Cc1ccc2cc(NC(=O)C3CC(=O)N(CCc4ccc(Cl)cc4)C3)ccc2n1` (stereo not drawn) [B7C], the “enhancement of suppression of Treg in vitro” value (shortened to “enhancement … in vitro”) [1] is reported as “enhancement” and the “FOXP3 bound on chromatin” value [2] is reported as “intervening with FOXP3 bound on chromatin”.

For `Cc1ccc(NC(=O)C2CC(=O)N(CCc3ccc(Cl)cc3)C2)cc1` (stereo not drawn) [B7], the “enhancement … in vitro” value [1] was “enhancement”, the “T cell proliferation in the absence of Treg cells” value ([1]; Treg:Tcell 0:1, left panels FIG. 8A-D) was “unimpaired” and the “percentage of proliferated cells” value ([1]; FIG. 8B (B7-1000x dilution of 10 mM, 10 μM), highest B7 dosage) was 25%. For the same compound, the “percentage of proliferated cells” value ([1]; FIG. 8C (B7-4000x dilution of 10 mM), middle B7 dosage) was 30%, the “percentage of proliferated cells” value ([1]; FIG. 8D (B7-8000x dilution of 10 mM), lowest B7 dosage) was 37% and the “Treg activity (decreasing Tcell proliferation)” value ([1]; dose dependent, varying Treg:T cell ratios) was “enhanced the Treg activity”. The weight loss ([3]; 2 mg/kg/d i.p., started at ~15% weight loss, vs carrier DMSO, p<0.01) was “reversed”, the diarrhea ([3]; 2 mg/kg/d i.p., vs carrier DMSO, p<0.005) was “reversed” and the “blood in the stool” value [3, 5] was “reversed”. The colon length [3, 5] was “maintained”, the “colon length relative to that of an unstressed control animal” value ([3]; single animal, 3% DSS then B7) was “about 94%” and the “spleen size relative to control animal” value ([3]; single remediated animal, 3% DSS then B7) was “comparable in size to that of the control”.

For `COc1ccc(NC(=O)C2CC(=O)N(CCc3ccc(Cl)cc3)C2)cc1` (stereo not drawn) [B7B], the “enhancement … in vitro” value [1] was “enhancement”.

With `O=C(Nc1ccc(Cl)cc1)C1CC(=O)N(CCc2ccc(Cl)cc2)C1` (stereo not drawn) [B7A] the “enhancement … in vitro” value [1] was “enhancement”.

In the case of `COc1ccc(CCN2CC(C(=O)Nc3ccc(F)c(Cl)c3)CC2=O)cc1OC` (stereo not drawn) [B7G], the “Acetylated FOXP3 (HA-HRP blot of Ac-K precipitated proteins)” value ([4]; 32 μg/ml) is reported as “reduced significantly”, the “Acetylated TIP60 (FLAG-HRP blot of Ac-K precipitated proteins)” value ([4]; 32 μg/ml) is reported as “reduced significantly” and the TIP60 auto-acetylation ([4]; lower concentration than 32 μg/ml) is reported as “slightly increase”. The “FOXP3 expression level in total cell lysate” value ([4]; various concentrations) was “not significantly affected” and the “TIP60 expression level in total cell lysate” value ([4]; various concentrations) was “not significantly affected”.
